Data from patent US11613558B2, “Peptides and pharmaceutical compositions for treating eye diseases” (Yuyu Pharma, Inc., priority 2018, dated 2023).
Square brackets hold non-standard residues; d marks the D form. Ends that are not written are not given here. Peptide text beside a SMILES is read from it. ξ: configuration not given here. Pro(trans-4-F) = O=C(O)[C@@H]1C[C@@H](F)CN1; Pro(4,4-Me2) = CC1(C)CN[C@H](C(=O)O)C1; Hyp = O=C(O)[C@@H]1C[C@@H](O)CN1; Thr(3ξ) = CC(O)[C@H](N)C(=O)O; hSer = N[C@@H](CCO)C(=O)O

Key:
[1] = system: rats with dry eye syndrome (extraorbital lacrimal gland excision, ELGE); test: Amount of tear secretion (Schirmer test, cobalt chloride paper) in ELGE rats with dry eye syndrome; assay type: in vivo, rat; settings: for Tear Volumes, Day 7 / Tear Volumes, Day 14: ELGE rats, 3 mg/ml, 5 μl/eye twice daily; for Tear Volumes, Day 7: day 7 of administration; for Tear Volumes, Day 14: day 14 of administration; for Change in amount of tear secretion as compared with the ELGE control group: 3% solution as printed, after administration for 14 days
From the text: (§1) In order to evaluate the eye protection effect on dry eye syndrome by YDE-001 to YDE-028 prepared in Example 1, a total of 320 Sprague-Dawley-type male rats (OrientBio, Seungnam, Korea) were adapted for 7 days. Thereafter, dry eye syndrome was induced in 264 test rats through extraorbital lacrimal gland excision (hereinafter, ELGE). 8 test rats without the eye abnormality were subjected to a sham operation as a control group.
(§2) The rat was systemically anesthetized by inhaling a mixed gas of 2% to 3% of isoflurane (Hana Pharm. Co., Hwasung, Korea), 70% of N2O, and 28.6% of O2 using a rodent anesthesia machine (Surgivet, Waukesha, Wis., USA) and a ventilator (Model 687, Harvard Apparatus, Cambridge, UK). Thereafter, the extraorbital lacrimal gland located in the subdermal area above the masseter muscle and […] was excised through a transverse incision in a size of 10 mm on the anterior part of the left ear tragus. The skin was sutured by a general method. […] After 6 days from the ELGE operation, it was checked through the Schirmer test by measuring the amount of tear secretion whether dry eye syndrome had been induced. Meanwhile, each rat of the control group with the sham operation was checked for the presence and location of the extraorbital lacrimal gland through a skin incision, and the skin was then sutured without the excision thereof (FIG. 4).
(§3) In addition, in order to evaluate the eye protection effect on dry eye syndrome by YDE-029 to YDE-043 prepared in Example 1, a total of 200 Sprague-Dawley-type male rats (OrientBio, Seungnam, Korea) were adapted for 7 days. Dry eye syndrome was induced in 165 test rats through the ELGE. 8 test rats without the eye abnormality were subjected to the sham operation as a control group. The ELGE was carried out as described above.
(§4) For YDE-001 to YDE-028, YY-102 and the 28 YDE-series were each dissolved in physiological saline at a concentration of 3 mg/ml and administered at a dose of 5 μl/eye at 9:30 am and 3:30 pm daily for 14 days after 7 days from the ELGE operation for a total of 28 times. The DS solution was dissolved in physiological saline at a concentration of 30 mg/ml and administered at a dose of […] twice a day for 14 days after 7 days from the ELGE operation for a total of 28 times. For the sham control and the ELGE control groups, the same stimulation as the administration was applied. In order to prevent excessive eye dryness, the same volume of physiological saline was applied in the same manner in place of the test substances.
as §4, with “Further, for YDE-029 to YDE-043,” for “For YDE-001 to YDE-028,”, “YDE-029 to YDE-043, YY-102 and” for “YDE-001 to YDE-028, YY-102 and”, “and the 15 YDE-series were” for “and the 28 YDE-series were”, “the test substances (FIG. 7).” for “the test substances.”
After 6 days from the ELGE surgery, the changes in the amount of tear secretion were measured at day 7 and day 14 after the administration of YDE-001 to YDE-043. The amount of tear secretion was measured by the […] travel distance of tears absorbed by cobalt chloride paper in a size of 1×15 mm (Toyo Roshi Kaisha, Japan).
The cobalt chloride paper was placed in the lateral canthus of a rat for 60 seconds to absorb tears (FIG. 9). The length of the area absorbed from the corner of the cobalt chloride paper was measured with an electronic digital caliper (Mytutoyo, Tokyo, Japan) (FIG. 8).

[2] = system: cornea of rats with dry eye syndrome (ELGE); test: Corneal permeability of fluorescent dye (corneal damage) in ELGE rats with dry eye syndrome; assay type: in vivo, rat; settings: 5 μl/eye twice daily, day 14
From the text: as §1, §2, §3, §4
as §4, with “Further, for YDE-029 to YDE-043,” for “For YDE-001 to YDE-028,”, “YDE-029 to YDE-043, YY-102 and” for “YDE-001 to YDE-028, YY-102 and”, “and the 15 YDE-series were” for “and the 28 YDE-series were”, “the test substances (FIG. 7).” for “the test substances.”
After YDE-001 to YDE-028 were each administered to the eyes […], the changes in the corneal permeability were checked.
In order to measure the corneal permeability, Zolethyl 50™ (Virbac Lab., Carros, France), an animal anesthetic, was intraperitoneally injected at a dose of 25 mg/kg. Thereafter, saline containing a 1% (v/v) fluorescent solution (fluorescein sodium salt, Tokyo Kasei Kogyo Co., Tokyo, Japan) was applied to the eyes at a dose of 5 μl/eye. The eyes thus treated were closed and fixed with a tape. After 1 hour, the remaining fluorescent solution was removed using a cotton swab (FIG. 12). […]

[3] = Stability in aqueous solution under long-term storage conditions (related substances); assay type: physicochemical; settings: 25° C., 75% RH
Protocol: In order to confirm the stability of each test substance in an aqueous solution, […] of each sample was dissolved in 1 ml of water to a concentration of 1 mg/ml, which was then charged to a glass vial, plugged with a rubber cap, sealed with an aluminum cap, and stored under long-term storage conditions (25° C., 75% RH). The stability of the test substance was evaluated by measuring the amount of related substances at the time of one week, two weeks, four weeks, eight weeks, and twelve weeks under the long-term storage conditions.

[4] = Table 4, study of YDE-001 to YDE-028
[5] = Table 6, study of YDE-001 to YDE-028, 3 mg/ml
[6] = Table 5, study of YDE-029 to YDE-043
[7] = Table 7, study of YDE-029 to YDE-043, 3 mg/ml

Row | Compound | Tear Volumes, Day 7 [1, 4] [mm^3] | Tear Volumes, Day 14 [1, 4] [mm^3] | Permeability of fluorescent dye [2, 5] [%] | Amount of related substances (after 12 weeks) [3] [%] | Tear Volumes, Day 7 [1, 6] [mm^3] | Tear Volumes, Day 14 [1, 6] [mm^3] | Change in amount of tear secretion as compared with the ELGE control group ([1]; study of YDE-029 to YDE-043) | Permeability of fluorescent dye [2, 7] [%] | Change in amount of tear secretion as compared with the ELGE control group ([1]; study of YDE-001 to YDE-028)
1 | CC(C)C[C@H](NC(=O)CNC(=O)[C@H](CCO)NC(=O)[C@H](CCC(N)=O)NC(=O)CNC(=O)[C@@H]1C[C@@H](O)CN1)C(=O)N[C@@H](C)C(=O)NCC(=O)N1CCC[C@H]1C(=O)N[C@@H](CCCCN)C(=O)O [YDE-026] (H-[Hyp]GQ[hSer]GLAGPK-OH) | 4.32 ± 1.47 | 6.01 ± 1.83 | 22.63 ± 11.23 | 10.15 |  |  |  |  | 
2 | CC(C)C[C@H](NC(=O)CNC(=O)[C@H](CC(N)=O)NC(=O)[C@H](CCC(N)=O)NC(=O)CNC(=O)[C@@H]1C[C@@H](O)CN1)C(=O)N[C@@H](C)C(=O)NCC(=O)N1CCC[C@H]1C(=O)N[C@@H](CCCCN)C(=O)O [YDE-002] (H-[Hyp]GQNGLAGPK-OH) | 3.84 ± 1.16 | 5.01 ± 1.67 | 38.26 ± 11.25 | 4.93 |  |  |  |  | 
3 | CC(C)C[C@H](NC(=O)[C@@H]1CCCN1C(=O)CNC(=O)[C@H](C)NC(=O)[C@H](CC(C)C)NC(=O)CNC(=O)[C@H](CC(C)C)NC(=O)[C@H](CCC(N)=O)NC(=O)CNC(=O)[C@@H]1C[C@@H](O)CN1)C(=O)O [YDE-030] (H-[Hyp]GQLGLAGPL-OH) |  |  |  | 2.74 | 5.69 ± 1.79 | 6.65 ± 2.17 | did not show any significant changes | 30.60 ± 13.61 | 
4 | COC(=O)C[C@H](NC(=O)[C@H](CCC(N)=O)NC(=O)CNC(=O)[C@@H]1C[C@@H](O)CN1)C(=O)NCC(=O)N[C@@H](CC(C)C)C(=O)N[C@@H](C)C(=O)NCC(=O)N1CCC[C@H]1C(=O)N[C@@H](CCCCN)C(=O)O [YDE-027] (H-[Hyp]GQD(OMe)GLAGPK-OH) | 2.82 ± 0.86 | 3.95 ± 1.52 | 50.24 ± 11.94 | 12.74 |  |  |  |  | did not show any significant changes
5 | CC(C)C[C@H](NC(=O)[C@H](CCC(N)=O)NC(=O)CNC(=O)[C@@H]1C[C@@H](O)CN1)C(=O)NCC(=O)O [YDE-043] (H-[Hyp]GQLG-OH) |  |  |  | 3.43 | 5.90 ± 1.06 | 8.16 ± 1.42 |  | 19.04 ± 7.36 | 
6 | CC(C)C[C@H](NC(=O)CNC(=O)[C@H](CC(C)C)NC(=O)[C@H](CCC(N)=O)NC(=O)CNC(=O)[C@@H]1C[C@@H](O)CN1)C(=O)N[C@@H](C)C(=O)NCC(=O)N1CCC[C@H]1C(=O)N[C@@H](Cc1ccc(O)cc1)C(=O)O [YDE-029] (H-[Hyp]GQLGLAGPY-OH) |  |  |  | 2.77 | 5.33 ± 1.43 | 6.03 ± 1.71 | did not show any significant changes | 63.45 ± 11.57 | 
7 | PGQLGLAGPK [YDE-037] |  |  |  | 2.88 | 4.98 ± 0.66 | 5.80 ± 0.90 |  | 36.30 ± 9.75 | 
8 | CC(C)C[C@H](NC(=O)CNC(=O)[C@H](CC(C)C)NC(=O)[C@H](CCC(N)=O)NC(=O)CNC(=O)[C@@H]1C[C@@H](F)CN1)C(=O)N[C@@H](C)C(=O)NCC(=O)N1CCC[C@H]1C(=O)N[C@@H](CCCCN)C(=O)O [YDE-039] (H-[Pro(trans-4-F)]GQLGLAGPK-OH) |  |  |  | 2.19 | 6.04 ± 1.01 | 6.44 ± 1.96 |  | 29.94 ± 11.40 | 
9 | CNC(=O)C[C@H](NC(=O)[C@H](CCC(N)=O)NC(=O)CNC(=O)[C@@H]1C[C@@H](O)CN1)C(=O)NCC(=O)N[C@@H](CC(C)C)C(=O)N[C@@H](C)C(=O)NCC(=O)N1CCC[C@H]1C(=O)N[C@@H](CCCCN)C(=O)O [YDE-028] (H-[Hyp]GQD(NHMe)GLAGPK-OH) | 4.04 ± 0.99 | 4.73 ± 1.18 | 41.17 ± 10.25 | 1.15 |  |  |  |  | did not show any significant changes
10 | CC(C)C[C@H](NC(=O)CNC(=O)[C@H](CC(C)C)NC(=O)[C@H](CCC(N)=O)NC(=O)CNC(=O)[C@@H]1CC(C)(C)CN1)C(=O)N[C@@H](C)C(=O)NCC(=O)N1CCC[C@H]1C(=O)N[C@@H](CCCCN)C(=O)O [YDE-040] (H-[Pro(4,4-Me2)]GQLGLAGPK-OH) |  |  |  | 3.58 | 5.77 ± 1.05 | 8.63 ± 1.53 |  | 18.33 ± 9.41 | 
11 | CC(C)C[C@H](NC(=O)CNC(=O)[C@@H](NC(=O)[C@H](CCC(N)=O)NC(=O)CNC(=O)[C@@H]1C[C@@H](O)CN1)C(C)O)C(=O)N[C@@H](C)C(=O)NCC(=O)N1CCC[C@H]1C(=O)N[C@@H](CCCCN)C(=O)O (stereo partly drawn) [YDE-007] (H-[Hyp]GQ[Thr(3ξ)]GLAGPK-OH) | 3.91 ± 1.28 | 5.45 ± 1.26 | 32.79 ± 10.77 | 3.76 |  |  |  |  | 
12 | CC(C)C[C@H](NC(=O)CNC(=O)[C@@H](NC(=O)[C@H](CCC(N)=O)NC(=O)CNC(=O)[C@@H]1C[C@@H](O)CN1)C(C)C)C(=O)N[C@@H](C)C(=O)NCC(=O)N1CCC[C@H]1C(=O)N[C@@H](CCCCN)C(=O)O [YDE-009] (H-[Hyp]GQVGLAGPK-OH) | 3.76 ± 1.21 | 4.54 ± 1.11 | 41.50 ± 7.86 | 4.71 |  |  |  |  | did not show any significant changes
13 | CC(C)C[C@H](NC(=O)[C@@H](NC(=O)[C@H](CC(=O)O)NC(=O)[C@H](CCC(N)=O)NC(=O)CNC(=O)[C@@H]1C[C@@H](O)CN1)C(C)C)C(=O)N[C@@H](C)C(=O)NCC(=O)N1CCC[C@H]1C(=O)N[C@@H](CCCCN)C(=O)O [YDE-015] (H-[Hyp]GQDVLAGPK-OH) | 4.03 ± 2.19 | 6.65 ± 2.13 | 15.95 ± 6.48 | 13.05 |  |  |  |  | 
